{"source": "patent US20240108632A1", "about": "“PHARMACEUTICAL COMPOSITION FOR ADMINISTRATION AS OPHTHALMIC DROP TO PATIENT REQUIRING OPTIC NERVE PROTECTION” (PINOTBIO, INC., priority 2020, published 2024)", "key": {"[1]": {"test": "Solubility as a function of HP-β-CD concentration, without pH adjustment (purified water)", "format": "physicochemical", "details": "no pH adjustment", "protocol": "Various concentrations of HP-β-CD aqueous solutions were prepared by adding appropriate amounts of HP-β-CD at 0.5%, 1%, 2%, 3%, 4%, and 5% (w/v) in tertiary purified water. An excess of KR-67607 was added to the above HP-β-CD solution and stirred for 24 hours, then the supernatant was collected, filtered through a 0.2 μm PVDF filter, and 1 mL was added to a 10 mL volumetric flask and labeled with methanol.\nThe standard was 50 mg of KR-67607 accurately weighed and placed in a 50 mL volumetric flask and completely dissolved/stained with methanol. 1, 2, 4, 6, 8, 10 mL of the standard was accurately taken and placed in a 20 mL volumetric flask, and the one labeled with methanol was used as the standard.\nThe UV analysis conditions are as follows • Wavelength: 255 nm • Cell: 10 mm Quartz cell\nKR-67607 concentration (μg/mL)=(UV absorbance of the sample−y-intercept of the standard curve)/(slope of the standard curve)×dilution factor of the sample. [Formula]"}, "[2]": {"test": "Appearance of HP-β-CD solutions of KR-67607 prepared at various pH", "format": "physicochemical", "details": "solution before entrapment under alkaline conditions; 3% HP-β-CD, 0.15% KR-67607", "protocol": "HP-β-CD aqueous solutions of various pH were prepared by adding 3% (w/v) appropriate amount of HP-β-CD to 0.08M NaOH aqueous solution, tertiary purified water, and 1M HCl aqueous solution. To each of the above different HP-β-CD solutions, 0.15% (w/v) KR-67607 was added and stirred for 1 hour, and then potassium dihydrogen phosphate, sodium chloride, and povidone K90 were mixed to a concentration of 0.68%, 0.435%, and 1.2% (w/v), respectively, to dissolve completely. The pH of the solution was adjusted to around 7.4 with 0.1 N HCl or 0.1 N NaOH aqueous solution, and then the total volume was adjusted by adding sterile purified water. The prepared solution was filtered through a 0.2 μm PVDF filter and evaluated for comparative appearance against a black background, and the results are shown in FIG. 5."}, "DBA/2 mice [3]": {"tested_on": "DBA/2 mice", "test": "Retinal electroretinogram in glaucoma mouse model", "format": "in vivo", "details": "after 8 weeks; right eye only; 0.3 log cd×s/m^2 stimulation; high-dose; transient", "protocol": "[…] was performed according to the manufacturer's instructions after mice were anesthetized by instilling 20 μl of paracaine eye drops 0.5% in both eyes. The electrodes were placed on the scalp, tail, and cornea, respectively, and a certain amount of monochromatic white light stimulation was applied to perform retinal electroretinography. The response value of the stimulated retina and the amplitude from the crest of the a-wave to the peak of the b-wave were measured and evaluated as an indicator of retinal function.\nTo determine the effect of KR-67607 on retinal dysfunction and optic nerve damage, the electroretinograms of mice in the study were measured at 4-week intervals for 16 weeks. The electroretinograms were quantified by analyzing responses obtained by exposing the left and right eyes of the mice to −0.9, 0.3, and 1.2 log cd×s/m^2 of light, respectively. […] Before drug administration, there was no significant difference in retinal electroretinograms between the control, drug, and positive control groups. […] This effect was only transient at week 8, and no significant difference was seen from week 12."}, "GFAP, TNFα and BAX mRNA": {"tested_on": "GFAP, TNFα and BAX mRNA", "test": "RT-PCR of retinal tissue from ocular hypertension rabbits", "format": "in vivo, New Zealand White rabbit", "details": "after Example 33 dosing", "protocol": "Following Example 33, in order to separate the sample (eyeball) to observe the glaucoma treatment effect on the drug in addition to the change in intraocular pressure caused by the drug administration, the eyeball was enucleated and about 0.2 mL of the aqueous humor was collected, and then the retina (including some choroid) was collected. The collected aqueous humor and retina were placed in 1.5 mL polypropylene tubes pre-marked with sample information, frozen in a deep freezer (approximately −80° C.) until analysis, and delivered to the test site for analysis.\nRNA or proteins were extracted from the eyes and analyzed by RT-PCR and western blotting to compare the expression of genes and proteins that can confirm the glaucoma treatment effect or optic nerve protection effect.\nRNA was extracted from the isolated retinal tissue and analyzed by RT-PCR to compare the expression of genes that can confirm the glaucoma treatment effect or retinal protection effect. The tissues were lysed using TrizolTM Reagent (Invitrogen, CA, US) to extract the soluble RNA, and the RNA was precipitated by adding isopropanol (100%; Sigma-aldrich, MO, US).\nSubsequently, cDNA was synthesized from the isolated RNA using a cDNA synthesis kit (AccuPower RT Premix; Bioneer, KR) and used for RT-PCR. The primer information used for RT-PCR analysis is as follows.\nThe synthesized DNA strands were then analyzed after separation on a 1.5% agarose gel using gene-specific primers (FIG. 28)."}, "DBA/2 mice [4]": {"tested_on": "DBA/2 mice", "test": "Intraocular pressure in ocular hypertensive glaucoma mouse model", "format": "in vivo", "details": "for IOP reduced compared to control group: week 16, 20 μl both eyes twice daily", "protocol": "In this study, we evaluated the efficacy of KR-67607 in a mouse model of glaucoma using DBA/2 mice, which are congenitally predisposed to persistently elevated intraocular pressure (FIG. 9).\nIOP was measured after the acclimatization period and then every 4 weeks. IOP was measured in respiratory anesthetized mice according to the manufacturer's instructions and the mean value presented after six measurements was recorded."}, "[5]": {"tested_on": "New Zealand White rabbit ocular hypertension model animals", "test": "IOP-lowering efficacy in rabbit ocular hypertension model (scleral vein ligation)", "format": "in vivo", "protocol": "This study was conducted in male New Zealand White rabbit ocular hypertension model animals (intraocular pressure ≥17 mmHg) induced by scleral vein ligation to determine the effectiveness of KR-67607 eye drops in reducing ocular hypertension after repeated twice daily ophthalmic administration for 11 days.\nSterile physiological saline (negative control), Xalatan, Timoptic, Trusopt, Xalacom, and KR-67607 eye drops were administered twice daily for 11 days, and mortality and general symptoms were monitored, body weight was measured, feed intake was measured, and intraocular pressure was measured."}}, "note": "Values joined by “and” are separate entries in the source; they are usually repeats but may differ in a detail not shown here. Identical values can stand only once."}
{"smiles": "CC1CN(CC(=O)NC2C3CC4CC2CC(C(N)=O)(C4)C3)S(=O)(=O)N(c2c(Cl)cc(C(F)(F)F)cc2Cl)C1", "note": "[KR-67607, (1s, 3R,4s,5S,7s)-4-(2-(6-(2,6-dichloro-4-(trifluoromethyl)phenyl)-4-methyl-1,1-dioxido-1,2,6-thiadiazinan-2-yl)acetamido)adamantane-1-carboxamide]", "values": [{"measurement": "the solubility of KR-67607", "setting": "[1]; HP-β-CD 0.5 % w/v in purified water", "value": 1200, "unit": "µg/mL"}, {"measurement": "the solubility of KR-67607", "setting": "[1]; HP-β-CD 1.0 % w/v in purified water", "value": 2550, "unit": "µg/mL"}, {"measurement": "the solubility of KR-67607", "setting": "[1]; HP-β-CD 2.0 % w/v in purified water", "value": 4230, "unit": "µg/mL"}, {"measurement": "the solubility of KR-67607", "setting": "[1]; HP-β-CD 3.0 % w/v in purified water", "value": 6000, "unit": "µg/mL"}, {"measurement": "the solubility of KR-67607", "setting": "[1]; HP-β-CD 4.0 % w/v in purified water", "value": 6910, "unit": "µg/mL"}, {"measurement": "the solubility of KR-67607", "setting": "[1]; HP-β-CD 5.0 % w/v in purified water", "value": 7250, "unit": "µg/mL"}, {"measurement": "entrapment ability of HP-β-CD for KR-67607 (appearance, FIG. 5)", "setting": "[2]", "value": "enhanced"}, {"measurement": "retinal electroretinograms compared to control group", "setting": "DBA/2 mice [3]", "value": "significant increase"}, {"measurement": "mRNA expression level of BAX in retinal tissues", "setting": "GFAP, TNFα and BAX mRNA", "value": "tended to decrease"}, {"measurement": "mRNA expression level of GFAP in retinal tissues", "setting": "GFAP, TNFα and BAX mRNA", "value": "tended to decrease"}, {"measurement": "mRNA expression level of TNFa in retinal tissues", "setting": "GFAP, TNFα and BAX mRNA", "value": "tended to decrease"}, {"measurement": "week from which significant IOP reduction was seen", "setting": "DBA/2 mice [4]; high dose KR-67607 (1.5 mg/ml)", "value": 4, "unit": "week"}, {"measurement": "week from which IOP-lowering effects were observed", "setting": "DBA/2 mice [4]; low-dose KR-67607 (0.75 mg/ml)", "value": 12, "unit": "week"}, {"measurement": "IOP reduced compared to control group", "setting": "DBA/2 mice [4]; high-dose KR-67607 (1.5 mg/ml)", "value": 26, "unit": "%"}, {"measurement": "IOP reduced compared to control group", "setting": "DBA/2 mice [4]; low concentration KR-67607 (0.75 mg/ml)", "value": 16, "unit": "%"}, {"measurement": "IOP reduction greater than in the negative control group", "setting": "[5]; Day 5", "value": 34.4, "unit": "%"}, {"measurement": "IOP reduction greater than in the negative control group", "setting": "[5]; Day 8", "value": 45.5, "unit": "%"}, {"measurement": "IOP compared to 100% of pre-dose IOP", "setting": "[5]; day 5, twice daily ophthalmic administration", "value": "49.0% and 60.1%"}, {"measurement": "greater IOP reduction than the Xalacom treatment group", "setting": "[5]; day 8", "value": 3.6, "unit": "%"}]}
